Source: US4052436A, “Fluorene-2-acetic acids and derivatives, process and method of using” (E. R. Squibb & Sons, Inc., priority 1976, dated 1977)

How the values were obtained:
[1] = anti-inflammatory activity of the optical isomers and dl mixture (test not specified); type: in vivo; conditions: α-methyl-fluorene-2-acetic acid, d and l optical isomers and dl mixture
[2] = test system: carrageenin-induced edema in the hind paw of the rat; test: carrageenin-induced edema assay (oral, hind paw); type: in vivo; conditions: 5 h, carrageenin injected into hind paw 2 h after dose, edema weighed 3 h after injection, read-out: ID50 (calculated dose that produces 50 percent inhibition of the edema)
Protocol: The anti-inflammatory activities of fluorene-2-acetic acid and its derivatives may be tested by a carrageenin-induced edema assay. Carrageenin injected into the footpad of rats produces an edematous condition, due mainly to vaso-active mediators. The compound to be tested is administered orally and assessed for inhibition of the edema.
The following examples show the anti-inflammatory activity of fluorene-2-acetic acid and 7-chloro-fluorene-2-acetic acid as determined by carrageenin-induced edema assay.
The procedure for these experiments is to first orally administer the test compound to a rat. Two hours later a solution of carrageenin is injected into the plantar surface of the hind paw of the rat. Three hours after the injection (5 hours after administration of the drug) the edema in the treated paw is measured by weighing the paws. To establish the baseline, the weight of the contralateral paw is determined. A dose-response curve is established, and the activity of the drug is recorded as the calculated dose that produces 50 percent inhibition (ID50) of the edema.

| SMILES | anti-inflammatory activity [1] | ED50 [2] [mg/kg] |
| --- | --- | --- |
| CC(C(=O)O)c1ccc2c(c1)Cc1ccccc1-2 (single isomer, unassigned) [d, α-methyl-fluorene-2-acetic acid] | possesses anti-inflammatory activity |  |
| CC(C(=O)O)c1ccc2c(c1)Cc1ccccc1-2 (single isomer, unassigned) [l, α-methyl-fluorene-2-acetic acid] | possesses anti-inflammatory activity |  |
| O=C(O)Cc1ccc2c(c1)Cc1cc(Cl)ccc1-2 [7-chloro-fluorene-2-acetic acid] |  | ~150 |
| CC(C(=O)O)c1ccc2c(c1)Cc1ccccc1-2 (stereo not drawn) [dl mixture, α-Methyl fluorene-2-acetic acid] | possesses anti-inflammatory activity |  |
| O=C(O)Cc1ccc2c(c1)Cc1ccccc1-2 [fluorene-2-acetic acid] |  | 67 |
